According to US9670204B2, “Compounds and pharmaceutical compositions thereof for the treatment of inflammatory disorders” (Galapagos NV, priority 2013, dated 2017):

Legend:
hENPP2 [1] = molecular target: T1, hENPP2 (UniProtKB/SwissProt Q13822) (Homo sapiens (Human), UniProt Q13822); assay: hENPP2 biochemical assay, LPC as substrate; conditions: LPC (palmitoyl 16:0) as substrate
How it was run: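 Human ENPP2 in 50 mM Tris-HCl pH 8.5, 500 mM NaCl, 5 mM KCl, 10 mM CaCl2, 0.1% fatty-acid-free BSA, reacted 30 min at 37 °C with LPC 16:0 (150 µM solution added 1:1). Released choline measured via choline oxidase/peroxidase/TOOS/4-aminoantipyrine quinoneimine dye at 555 nm; IC50 reported.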

hENPP2 [2] = molecular target: T1, hENPP2; assay: fluorescent hENPP2 biochemical assay, FS-3 as substrate; conditions: read-out: FS3-IC50
Description: Compound IC50 values are determined in a fluorescent hENPP2 (UniProtKB/SwissProt Sequence ref Q13822) biochemical assay using the fluorogenic autotaxin substrate FS-3 as substrate. FS-3 is a doubly labeled analog of LPC wherein the fluorophore is quenched through intramolecular energy transfer. Without hENPP2, the emission of the probe is quenched. If the substrate is hydrolyzed by hENPP2, the emission of the probe is not quenched anymore resulting in a fluorescence increase.
The enzyme is diluted in 50 mM Tris-HCl pH 8.0, 250 mM NaCl, 5 mM KCl, 1 mM MgCl2, 1 mM CaCl2, 0.1% fatty acid free BSA in a total volume of 20 μL. Enzyme mixture is added to compounds and the resulting mixture is incubated for 30 min at room temperature under shaking. The reaction is started by the addition of 20 μL of 0.75 μM FS-3 diluted in the same buffer as described above and the mixture is incubated at 30° C. for 30 min. Fluorescence is read on the Envision (Excitation 485 nm, emission 520 nm).

Compound	IC50 (hENPP2 [1])	IC50 (hENPP2 [2])
CCc1nc2ccc(C3=CCN(C(=O)Nc4cccs4)CC3)cn2c1N(C)c1nc(-c2ccc(F)cc2)cs1 [Compound 208, 4-(2-ethyl-3-((4-(4-fluorophenyl)thiazol-2-yl)(methyl)amino)imidazo[1,2-a]pyridin-6-yl)-N-(thiophen-2-yl)-5,6-dihydropyridine-1(2H)-carboxamide]	> 1000 nM	0.01 to 100 nM
CCc1nc2ccc(N3CCN(CC(=O)NC)CC3)cn2c1N(C)c1nc(-c2ccc(F)cc2)c(C#N)s1 [Compound 22, 2-(4-(3-((5-cyano-4-(4-fluorophenyl)thiazol-2-yl)(methyl)amino)-2-ethylimidazo[1,2-a]pyridin-6-yl)piperazin-1-yl)-N-methylacetamide]	0.01 to 100 nM	0.01 to 100 nM
CCc1nc2ccc(C3=CCN(S(C)(=O)=O)CC3)cn2c1N(C)c1nc(-c2ccc(F)cc2)no1 [Compound 189, N-(2-ethyl-6-(1-(methylsulfonyl)-1,2,3,6-tetrahydropyridin-4-yl)imidazo[1,2-a]pyridin-3-yl)-3-(4-fluorophenyl)-N-methyl-1,2,4-oxadiazol-5-amine]	> 1000 nM	0.01 to 100 nM
CCc1nc2ccc(C3CCN(S(C)(=O)=O)CC3)cn2c1N(C)c1nc(-c2ccc(F)cc2)c(C(N)=O)s1 [Compound 137, 2-((2-ethyl-6-(1-(methylsulfonyl)piperidin-4-yl)imidazo[1,2-a]pyridin-3-yl)(methyl)amino)-4-(4-fluorophenyl)thiazole-5-carboxamide]	> 1000 nM	0.01 to 100 nM
CCc1nc2ccc(C3=CCN(S(C)(=O)=O)CC3)cn2c1N(C)c1nc(-c2ccc(F)cc2)c(F)s1 [Compound 77, N-(2-ethyl-6-(1-(methylsulfonyl)-1,2,3,6-tetrahydropyridin-4-yl)imidazo[1,2-a]pyridin-3-yl)-5-fluoro-4-(4-fluorophenyl)-N-methylthiazol-2-amine]	> 1000 nM	0.01 to 100 nM
CCc1nc2ccc(C3CCN(S(=O)(=O)CCCN)CC3)cn2c1N(C)c1nc(-c2ccc(F)cc2)cs1 [Compound 90, N-(6-(1-(3-aminopropylsulfonyl)piperidin-4-yl)-2-ethylimidazo[1,2-a]pyridin-3-yl)-4-(4-fluorophenyl)-N-methylthiazol-2-amine]	500 to 1000 nM	0.01 to 100 nM
CCOC(=O)CN1CC=C(c2ccc3nc(CC)c(N(C)c4nc(-c5ccc(F)cc5)cs4)n3c2)CC1 [Compound 108, ethyl 2-(4-(2-ethyl-3-((4-(4-fluorophenyl)thiazol-2-yl)(methyl)amino)imidazo[1,2-a]pyridin-6-yl)-5,6-dihydropyridin-1(2H)-yl)acetate]	> 1000 nM	0.01 to 100 nM
CCc1nc2ccc(C3CCN(S(N)(=O)=O)CC3)cn2c1N(C)c1nc(-c2ccc(F)cc2)cs1 [Compound 92, 4-(2-ethyl-3-((4-(4-fluorophenyl)thiazol-2-yl)(methyl)amino)imidazo[1,2-a]pyridin-6-yl)piperidine-1-sulfonamide]	> 1000 nM	0.01 to 100 nM
CCc1nc2ccc(C3CCN(C(C)C)CC3)cn2c1N(C)c1nc(-c2ccc(F)cc2)cs1 [Compound 218, N-(2-ethyl-6-(1-isopropylpiperidin-4-yl)imidazo[1,2-a]pyridin-3-yl)-4-(4-fluorophenyl)-N-methylthiazol-2-amine]	> 1000 nM	0.01 to 100 nM
CCc1nc2ccc(C3CCN(C(=O)OC(C)(C)C)CC3O)cn2c1N(C)c1nc(-c2ccc(F)cc2)cs1 (centres unmarked) [Compound 78, tert-butyl 4-(2-ethyl-3-((4-(4-fluorophenyl)thiazol-2-yl)(methyl)amino)imidazo[1,2-a]pyridin-6-yl)-3-hydroxypiperidine-1-carboxylate]	> 1000 nM	0.01 to 100 nM
CCc1nc2ccc(C3CCN(CC(=O)NC4CC4)CC3)cn2c1N(C)c1nc(-c2ccc(F)cc2)cs1 [Compound 194, N-cyclopropyl-2-(4-(2-ethyl-3-((4-(4-fluorophenyl)thiazol-2-yl)(methyl)amino)imidazo[1,2-a]pyridin-6-yl)piperidin-1-yl)acetamide]	> 1000 nM	0.01 to 100 nM
CCc1nc2ccc(C3CCN(CC(=O)N(C)C)CC3)cn2c1N(C)c1nc(-c2ccc(F)cc2)ns1 [Compound 191, 2-(4-(2-ethyl-3-((3-(4-fluorophenyl)-1,2,4-thiadiazol-5-yl)(methyl)amino)imidazo[1,2-a]pyridin-6-yl)piperidin-1-yl)-N,N-dimethylacetamide]	> 1000 nM	0.01 to 100 nM

Next, values leading:

IC50 (hENPP2 [1])	IC50 (hENPP2 [2])	Compound
> 1000 nM	0.01 to 100 nM	CCc1nc2ccc(N3CCN(C(=O)OC(C)(C)C)CC3)cn2c1N(C)c1nc(-c2ccc(F)cc2)cs1 [Compound 23, tert-butyl 4-(2-ethyl-3-((4-(4-fluorophenyl)thiazol-2-yl)(methyl)amino)imidazo[1,2-a]pyridin-6-yl)piperazine-1-carboxylate]
100 to 500 nM	0.01 to 100 nM	CCc1nc2ccc(N3CCN(CC(=O)N(C)C)CC3)cn2c1N(C)c1nc(-c2ccc(F)cc2)cs1 [Compound 35, 2-(4-(2-ethyl-3-((4-(4-fluorophenyl)thiazol-2-yl)(methyl)amino)imidazo[1,2-a]pyridin-6-yl)piperazin-1-yl)-N,N-dimethylacetamide]
> 1000 nM	100 to 500 nM	CCc1nc2ccc(N3CCCS3(=O)=O)cn2c1N(C)c1nc(-c2ccc(F)cc2)cs1 [Compound 229, [6-(1,1-Dioxo-isothiazolidin-2-yl)-2-ethyl-imidazo[1,2-a]pyridin-3-yl]-[4-(4-fluoro-phenyl)-thiazol-2-yl]-methyl-amine]
> 1000 nM	0.01 to 100 nM	CCc1nc2ccc(N3CCN(C(=O)C(C)=O)CC3)cn2c1N(C)c1nc(-c2ccc(F)cc2)cs1 [Compound 200, 1-(4-(2-ethyl-3-((4-(4-fluorophenyl)thiazol-2-yl)(methyl)amino)imidazo[1,2-a]pyridin-6-yl)piperazin-1-yl)propane-1,2-dione]
> 1000 nM	0.01 to 100 nM	CCc1nc2ccc(C3CCN(C(=O)OC(C)(C)C)CC3)cn2c1N(C)c1nc(-c2ccc(F)cc2)cs1 [Compound 219, tert-butyl 4-(2-ethyl-3-((4-(4-fluorophenyl)thiazol-2-yl)(methyl)amino)imidazo[1,2-a]pyridin-6-yl)piperidine-1-carboxylate]
100 to 500 nM	0.01 to 100 nM	CCc1nc2ccc(C3CCN(C(=O)CN4CCCC4)CC3)cn2c1N(C)c1nc(-c2ccc(F)cc2)cs1 [Compound 126, 1-(4-(2-ethyl-3-((4-(4-fluorophenyl)thiazol-2-yl)(methyl)amino)imidazo[1,2-a]pyridin-6-yl)piperidin-1-yl)-2-(pyrrolidin-1-yl) ethanone]
> 1000 nM	0.01 to 100 nM	CCc1nc2ccc(C3CCN(CC(N)=O)CC3)cn2c1N(C)c1nc(-c2ccc(F)cc2)cs1 [Compound 125, 2-(4-(2-ethyl-3-((4-(4-fluorophenyl)thiazol-2-yl)(methyl)amino)imidazo[1,2-a]pyridin-6-yl)piperidin-1-yl)acetamide]
> 1000 nM	0.01 to 100 nM	CCc1nc2ccc(N3CCN(S(=O)(=O)CC(N)=O)CC3)cn2c1N(C)c1nc(-c2ccc(F)cc2)cs1 [Compound 61, 2-(4-(2-ethyl-3-((4-(4-fluorophenyl)thiazol-2-yl)(methyl)amino)imidazo[1,2-a]pyridin-6-yl)piperazin-1-ylsulfonyl)acetamide]
100 to 500 nM	0.01 to 100 nM	CCC(=O)N1CCC(c2ccc3nc(CC)c(N(C)c4nc(-c5ccc(F)cc5)cs4)n3c2)CC1 [Compound 215, 1-(4-(2-ethyl-3-((4-(4-fluorophenyl)thiazol-2-yl)(methyl)amino)imidazo[1,2-a]pyridin-6-yl)piperidin-1-yl)propan-1-one]
> 1000 nM	0.01 to 100 nM	CCc1nc2ccc(N3CCN(C(=O)C(N)=O)CC3)cn2c1N(C)c1nc(-c2ccc(F)cc2)cs1 [Compound 204, 2-(4-(2-ethyl-3-((4-(4-fluorophenyl)thiazol-2-yl)(methyl)amino)imidazo[1,2-a]pyridin-6-yl)piperazin-1-yl)-2-oxoacetamide]
> 1000 nM	0.01 to 100 nM	CCc1nc2ccc(N3CCN(S(C)(=O)=O)CC3=O)cn2c1N(C)c1nc(-c2ccc(F)cc2)cs1 [Compound 65, 1-(2-ethyl-3-((4-(4-fluorophenyl)thiazol-2-yl)(methyl)amino)imidazo[1,2-a]pyridin-6-yl)-4-(methylsulfonyl) piperazin-2-one]
> 1000 nM	0.01 to 100 nM	CCc1nc2ccc(N3CCNC3=O)cn2c1N(C)c1nc(-c2ccc(Cl)cc2)cs1 [Compound 183, 1-(3-((4-(4-chlorophenyl)thiazol-2-yl)(methyl)amino)-2-ethylimidazo[1,2-a]pyridin-6-yl)imidazolidin-2-one]
100 to 500 nM	0.01 to 100 nM	CCOC(=O)CN1CCC(c2ccc3nc(CC)c(N(C)c4nc(-c5ccc(F)cc5)cs4)n3c2)CC1 [Compound 109, ethyl 2-(4-(2-ethyl-3-((4-(4-fluorophenyl)thiazol-2-yl)(methyl)amino)imidazo[1,2-a]pyridin-6-yl)piperidin-1-yl)acetate]
